Several values for one entry are separate records, joined by “and”; a condition that tells them apart may be missing. Identical values can stand only once.
Tested on: LL-37
Assay: LL-37 expression in confluent human keratinocytes, time course and urea concentration series (real time PCR)
Type: cell-based
Conditions: for fold induction at 1000 µM / fold induction at 5000 µM / fold induction at 20000 µM / fold induction at 50000 µM / fold induction at 100000 µM / fold induction at 10000 µM: Homo sapiens, Keratinocyte; for fold induction at 20000 µM: 20mM urea
Protocol: Primary human epidermal keratinocytes were prepared from neonatal foreskin as described previously (Grether-Beck et al, 1996, 2000, 2003, 2005, 2008) and maintained in culture under serum free conditions using a defined keratinocyte growth medium Keratinocyte SFM (Invitrogen, Heidelberg, Germany) supplemented with bovine pituitary extract (Invitrogen, Heidelberg, Germany) and recombinant epidermal growth factor (Invitrogen, Heidelberg, Germany). Cells were propagated up to passage 2 or 3 at 37°C and 5 % CO2 (Grether-Beck et al, 1996, 2000, 2003, 2005, 2008). For induction of differentiation NHEKs were seeded in 6well plates and grown up to confluence.
For assessment of gene expression total RNA was extracted from frozen biopsies (Ø 4 mm) and gene expression measured by semiquantitative RT-PCR. For isolation of RNA from frozen skin biopsies, 600 µl lysis buffer from PeqGold Total RNA Kit (PeqLab, Erlangen, Germany) were added and the samples were disrupted in a MixerMill MM300 (Retsch, Haan, Germany) three times for 3 min with 30 Hz. 50 ng total RNA were used for cDNA synthesis. PCR reactions were performed in an Opticon 1 (MJ Research, Waltham, MA, USA) using Sybr QPCR Supermix w. Rox (Invitrogen, Karlsruhe, Germany). PCR conditions were as follows: activation of hot start taq polymerase 94° C 15 minutes; denaturation 95° C, 20 seconds; annealing, 55° C, 20 seconds; extension, 72° C 30 seconds. Each sample was subjected to PCR in double using the appropriate primer pairs for 45-50 cycles. For comparison of relative expression in real time PCR control cells and treated cells the 2 (-della delta C(T)) method was used (Livak KJ, and Schmittgen TD. Analysis of relative gene expression data using real time quantitative PCR and the 2 (-delta delta C(T)) method. Methods 2001: 25: 402 - 408). mRNA expression of the genes of interest was shown as fold induction as compared to untreated skin samples of the same volunteer. Table 1: Primer pairs for real time PCR
For determination of relative gene expression in real time PCT the 2(-delta delta C(T))-method was used as described in Livak and Schmittgen (2001) "Analysis of relative gene expression data using real time quantitative PCR and the 2 (-delta delta C(T))-method" Methods 25: 401-408. For statistical analysis, the experimental data were analyzed using the Wilcoxon signed-rank test. […]

## NC(N)=O [urea]
24h, 1mM urea, 1440 min, 1000 µM
  Expression of LL-37: 1.9000
24h, 5mM urea, 1440 min, 5000 µM
  Expression of LL-37: 1.7000
24h, 10mM urea, 1440 min, 10000 µM
  Expression of LL-37: 1.7000
48h, 1mM urea, 2880 min, 1000 µM
  Expression of LL-37: 3.0000
48h, 5mM urea, 2880 min, 5000 µM
  Expression of LL-37: 2.2000 and 1.9000
72h, 1mM urea, 4320 min, 1000 µM
  Expression of LL-37: 10.3000 and 11.4000
72h, 5mM urea, 4320 min, 5000 µM
  Expression of LL-37: 7.1000
72h, 10mM urea, 4320 min, 10000 µM
  Expression of LL-37: 1.7000 and 1.7300
72h, 50mM urea, 4320 min, 50000 µM
  Expression of LL-37: 0.9000
96h, 1mM urea, 5760 min, 1000 µM
  Expression of LL-37: 4.7000 and 5.5000
96h, 5mM urea, 5760 min, 5000 µM
  Expression of LL-37: 4.2000
96h, 10mM urea, 5760 min, 10000 µM
  Expression of LL-37: 3.4000
96h, 100mM urea, 5760 min, 100000 µM
  Expression of LL-37: 1.0000
24 h, 1mM urea
  fold induction at 1000 µM: 1.8
24 h, 5mM urea
  fold induction at 5000 µM: 1.4
24 h
  fold induction at 20000 µM: 1.2
24 h, 50mM urea
  fold induction at 50000 µM: 1.3
24 h, 100mM urea
  fold induction at 100000 µM: 1.2
48 h, 1mM urea
  fold induction at 1000 µM: 3.2
48 h, 5mM urea
  fold induction at 5000 µM: 2.1
48 h, 10mM urea
  fold induction at 10000 µM: 1.5
48 h
  fold induction at 20000 µM: 1.2
48 h, 50mM urea
  fold induction at 50000 µM: 1.2
48 h, 100mM urea
  fold induction at 100000 µM: 0.8
72 h, 1mM urea
  fold induction at 1000 µM: 11.2
72 h, 5mM urea
  fold induction at 5000 µM: 7.2
72 h, 10mM urea
  fold induction at 10000 µM: 1.8
72 h
  fold induction at 20000 µM: 1.6
72 h, 50mM urea
  fold induction at 50000 µM: 0.8
72 h, 100mM urea
  fold induction at 100000 µM: 0.8
96 h, 1mM urea
  fold induction at 1000 µM: 5
96 h, 5mM urea
  fold induction at 5000 µM: 3.9
96 h, 10mM urea
  fold induction at 10000 µM: 3.2
96 h
  fold induction at 20000 µM: 1.6
96 h, 50mM urea
  fold induction at 50000 µM: 1.3
96 h, 100mM urea
  fold induction at 100000 µM: 1.1
